In patent US10226426B2, “Suspension containing nano-cocrystal and manufacturing method” (TAKEDA PHARMACEUTICAL COMPANY LIMITED, priority 2015, dated 2019):
In brackets after ≈: the same amount, converted by molar mass.

What was measured:
[1] = Powder X-ray diffractometry, crystallinity by the Hermans method; assay type: physicochemical
Method: To be specific, powder samples (about 2 mg) were placed on a silicon sample plate, and scanned between 2 and 35 degrees (2θ) at a scan speed of 6 degrees/min. Powder samples such as nanoized FSD and the like were prepared by centrifuging suspensions thereof by cooling centrifugal machine Himac CR21G (manufactured by Hitachi Koki Co., Ltd.) at 19,000 rpm for 10 min and drying same. In addition, from the obtained X-ray diffraction patterns by the Hermans method, crystallinity before and after wet grinding was calculated.

[2] = value at 25° C. and 1 atm; cited from earlier work

Structure (SMILES) | crystallinity before wet grinding [1] [%] | diffraction pattern before and after wet grinding (dissociation of cocrystal) ([1]; wet grinding in 0.5% (w/v) HPMC and 0.02% (w/v) SDS) | water solubility [2] | formation of hydrate by wet grinding ([1]; diffraction pattern after wet grinding)
O=C1NS(=O)(=O)c2ccccc21 [Saccharin, saccharin] | – | – | 3.4 mg/mL (≈ 18600 µM) | –
NC(N)=O [urea] | – | – | 1,000 mg/mL | –

Now from value to compound, other results behind:

crystallinity before wet grinding [1] [%] | Structure (SMILES) | diffraction pattern before and after wet grinding (dissociation of cocrystal) ([1]; wet grinding in 0.5% (w/v) HPMC and 0.02% (w/v) SDS) | water solubility [2] | formation of hydrate by wet grinding ([1]; diffraction pattern after wet grinding)
85 | NS(=O)(=O)c1cc(C(=O)O)c(NCc2ccco2)cc1Cl [Furosemide, furosemide] | did not show a marked difference in the diffraction pattern before and after the wet grinding | – | –
88 | NC(=O)N1c2ccccc2C=Cc2ccccc21 [anhydrous carbamazepine, carbamazepine] | – | 0.22 mg/mL (≈ 931 µM) | formation of CBZ dihydrate could be confirmed
81 | COc1ccc2c(c1)c(CC(=O)O)c(C)n2C(=O)c1ccc(Cl)cc1 [indomethacin] | – | 0.0095 mg/mL (≈ 26.6 µM) | –
